PMC11855478, “Bicyclic N,S-Acetals Containing Fused Cysteine-Amide System as New Heterocyclic Class Targeting Human Farnesyltransferase (FTase-h)” (International Journal of Molecular Sciences, 2025)

How the values were obtained:
[1] = biological target: human farnesyltransferase (FTase) (Homo sapiens, UniProt P49354+P49356); assay: FTase inhibitory assay (fluorescence, Dansyl-GCVLS); type: biochemical; conditions: inhibition of human FTase at 100 μM of tested compound; mean of two experiments
How it was run: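 Partially purified recombinant FTase with Dansyl-GCVLS and farnesyl pyrophosphate in Tris/HCl pH 7.5 (DTT, MgCl2, ZnCl2, octyl-glucoside); fluorescence (ex 340/em 486 nm) read 15 min at 30 °C. IC50 by regression for compounds inhibiting >60% at 100 µM; kinetics varied FPP (Dns-GCVLS 2.5 μM) or peptide (FPP 10 μM).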

[2] = test system: MOLT-4 (Leukemia); assay: NCI one dose, MOLT-4; type: cell-based, human; conditions: MOLT-4, 1.00E-5 Molar one dose
Experimental: (§1) 3.4. Cell Proliferation Assay
(§2) Selected compounds were tested on a panel of 60 human cancer cell lines at the National Cancer Institute (NCI), Germantown, MD, USA. The cytotoxicity studies were conducted using a 48 h exposure protocol using the sulfo-rhodamine B assay.

[3] = test system: HCT-15 (Colon Cancer); assay: NCI one dose, HCT-15; type: cell-based, human; conditions: HCT-15, 1.00E-5 Molar one dose
Experimental: as §1, §2

[4] = test system: SK-MEL-28 (Melanoma); assay: NCI one dose, SK-MEL-28; type: cell-based, human; conditions: SK-MEL-28, 1.00E-5 Molar one dose
Experimental: as §1, §2

[5] = test system: HCT-116 (Colon Cancer); assay: NCI one dose, HCT-116; type: cell-based, human; conditions: HCT-116, 1.00E-5 Molar one dose
Experimental: as §1, §2

[6] = test system: SNB-75 (CNS Cancer); assay: NCI one dose, SNB-75; type: cell-based, human; conditions: SNB-75, 1.00E-5 Molar one dose
Experimental: as §1, §2

[7] = test system: PC-3 (Prostate Cancer); assay: NCI one dose, PC-3; type: cell-based, human; conditions: PC-3, 1.00E-5 Molar one dose
Experimental: as §1, §2

[8] = test system: MDA-MB-468 breast cancer cells; assay: NCI one dose, MDA-MB-468; type: cell-based, human; conditions: MDA-MB-468, 1.00E-5 Molar one dose
Experimental: as §1, §2

[9] = test system: A498 (Renal Cancer); assay: NCI one dose, A498; type: cell-based, human; conditions: A498, 1.00E-5 Molar one dose
Experimental: as §1, §2

[10] = test system: HCC-2998 (Colon Cancer); assay: NCI one dose, HCC-2998; type: cell-based, human; conditions: HCC-2998, 1.00E-5 Molar one dose
Experimental: as §1, §2

[11] = test system: A549/ATCC (Non-Small Cell Lung Cancer); assay: NCI one dose, A549/ATCC; type: cell-based, human; conditions: 1.00E-5 Molar one dose
Experimental: as §1, §2

[12] = test system: U251 (CNS Cancer); assay: NCI one dose, U251; type: cell-based, human; conditions: U251, 1.00E-5 Molar one dose
Experimental: as §1, §2

[13] = test system: ACHN (Renal Cancer); assay: NCI one dose, ACHN; type: cell-based, human; conditions: 1.00E-5 Molar one dose
Experimental: as §1, §2

[14] = test system: HOP-62 (Non-Small Cell Lung Cancer); assay: NCI one dose, HOP-62; type: cell-based, human; conditions: HOP-62, 1.00E-5 Molar one dose
Experimental: as §1, §2

[15] = test system: SF-268 (CNS Cancer); assay: NCI one dose, SF-268; type: cell-based, human; conditions: SF-268, 1.00E-5 Molar one dose
Experimental: as §1, §2

[16] = test system: panel of 60 human cancer cell lines; assay: NCI 60 cell panel one dose screen (whole panel); type: cell-based; set-up: Delta (One Dose Mean Graph): unit not given here; conditions: 1.00E-5 Molar one dose; for Range (One Dose Mean Graph): in % (unit assumed); for Mean Growth Percent: mean over tested cell lines
Experimental: as §1
Selected compounds were tested on a panel of 60 human cancer cell lines at the National Cancer Institute (NCI), Germantown, MD, USA. The cytotoxicity studies were conducted using a 48 h exposure protocol using the sulfo-rhodamine B assay. […]
X. NCI One Dose Mean Graph of sulfides 4a(A -J) and 4b(A-J)
The entire series of sulfides regrouping twenty synthesized FTI-candidates (4aA-J, 4bA-J) were selected by the National Cancer Institute (NCI) for evaluation of their antiproliferative activity against 60 cancer cell lines (see the followings twenty pages for full evaluation reports). […]
inhibiting 36% of the NCI-H522 cells. Such difference between IC50 on human FTase in the nanomolar range and IC50 on cancer cell growth in the micromolar range is characteristic to potent FTIs and was reported previously on different series of compounds (see for example ref erence in the references part […]
Of interest, none of the tested compounds at a high single dose (10 µM) in the full NCI 60 cell panel has shown a cytotoxic profile. […]
inhibitory potential on FTase raise good hope for further investigation of these series as agents fighting

[17] = test system: MALME-3M (Melanoma); assay: NCI one dose, MALME-3M; type: cell-based, human; conditions: 1.00E-5 Molar one dose
Experimental: as §1, §2

[18] = test system: UACC-257 melanoma cells; assay: NCI one dose, UACC-257; type: cell-based, human; conditions: UACC-257, 1.00E-5 Molar one dose
Experimental: as §1, §2

[19] = test system: SK-MEL-2 (Melanoma); assay: NCI one dose, SK-MEL-2; type: cell-based, human; conditions: SK-MEL-2, 1.00E-5 Molar one dose
Experimental: as §1, §2

[20] = test system: NCI-H23 (Non-Small Cell Lung Cancer); assay: NCI one dose, NCI-H23; type: cell-based, human; conditions: NCI-H23, 1.00E-5 Molar one dose
Experimental: as §1, §2

[21] = test system: IGROV1 (Ovarian Cancer); assay: NCI one dose, IGROV1; type: cell-based, human; conditions: IGROV1, 1.00E-5 Molar one dose
Experimental: as §1, §2

Compound | % FTI [1] | Growth Percent [2] | Growth Percent [3] | Growth Percent [4] | Growth Percent [5] | Growth Percent [6] | Growth Percent [7] | Growth Percent [8] | Growth Percent [9] | Growth Percent [10] | Growth Percent [11] | Growth Percent [12] | Growth Percent [13] | Growth Percent [14] | Growth Percent [15] | Delta (One Dose Mean Graph) [16] | Range (One Dose Mean Graph) [16] | Mean Growth Percent [16] | Growth Percent [17] | Growth Percent [18] | further results
COc1cccc(CNC(=O)[C@@H]2CS[C@H]3c4ccccc4C(=O)N23)c1 [4aE] | 35% | 80.83% | 105.05% | 113.63% | 102.32% | 100.11% | 98.06% | 106.71% | 92.71% | 98.50% | 83.51% | 102.42% | 110.85% | 96.82% | 100.53% | 27.47 | 39.82 | 101.56% | 107.90% | 93.82% | Growth Percent [19]: 95.73%; Growth Percent [20]: 99.84%; Growth Percent [21]: 109.07%
O=C(NCc1ccc(Cl)cc1Cl)[C@@H]1CS[C@H]2c3ccccc3C(=O)N12 [4aH] | 52% | 79.54% | 102.53% | 103.04% | 83.47% | 89.63% | 81.35% | 91.86% | 101.60% | 102.84% | 97.39% | 95.21% | 99.60% | 97.52% | 98.11% | 24.18 | 40.81 | 97.15% | 107.73% | 96.52% | Growth Percent [19]: 99.61%; Growth Percent [20]: 99.59%; Growth Percent [21]: 101.47%
C[C@@]12SC[C@@H](C(=O)NCc3cccc(C(F)(F)F)c3)N1C(=O)c1ccccc12 [4bD] | 51% | 75.84% | 95.74% | 108.59% | 87.94% | 93.18% | 92.84% | 97.93% | 85.48% | 110.65% | 77.57% | 94.94% | 95.88% | 90.69% | 102.43% | 25.48 | 41.72 | 94.41% | 99.33% | 74.68% | Growth Percent [19]: 85.25%; Growth Percent [20]: 99.06%; Growth Percent [21]: 99.72%
C[C@@]12SC[C@@H](C(=O)NCc3ccccc3Br)N1C(=O)c1ccccc12 [4bB] | 39% | 82.96% | 95.65% | 104.28% | 104.70% | 92.47% | 78.76% | 88.64% | 75.85% | 97.16% | 77.15% | 91.25% | 106.88% | 99.61% | 96.91% | 17.49 | 36.16 | 93.03% | 97.54% | 75.54% | Growth Percent [19]: 85.75%; Growth Percent [20]: 91.89%; Growth Percent [21]: 97.21%
C[C@@]12SC[C@@H](C(=O)NCc3ccccc3C(F)(F)F)N1C(=O)c1ccccc12 [4bC] | 58% | 74.60% | 100.40% | 111.34% | 89.85% | 96.49% | 80.00% | 101.77% | 79.95% | 105.71% | 69.56% | 91.69% | 106.49% | 97.48% | 103.76% | 25.73 | 45.90 | 95.29% | 112.02% | 73.01% | Growth Percent [19]: 87.91%; Growth Percent [20]: 99.44%; Growth Percent [21]: 103.13%
